Results: patent publication US9969755B2, “Photodynamic therapy photosensitizers” (The Royal Institution for the Advancement of …, priority 2016, dated 2018)
“And” between values parts separate entries of the source, which are not always exact repeats. Equal entries are not always repeated.

What was measured:
Format in all cases: physicochemical
[1] = Electrochemical studies (cyclic voltammetry); design: E^oB^+·/B (reversible oxidation potential): unit not given here; settings: vs ferrocene, acetonitrile
Experimental: Electrochemical measurements were performed using a three-electrode system. The working electrode was a Pt wire, a Pt mesh wire was used as the counter electrode, and a Ag/AgCl electrode was used as the reference. A 0.1 M solution of tetrabutylammonium hexafluorophosphate in dry acetonitrile was used as the electrolyte solvent in which the compounds were dissolved to 1 mM or to saturation when the latter occurred before reaching a 1 mM concentration. Concentration was determined from their absorption and calculated extinction coefficient. Solutions also contained ferrocene with a concentration of 1 mM as an internal standard. The solutions were equilibrated with argon, and all measurements were conducted under inert atmosphere, with a minimum scan rate of 0.2 V s^−1. When the acquired cyclic voltammograms were not reversible the scan rate was increased up to 1 V s^−1. Formal redox potentials were calculated from the midpoint of the cathodic and anodic peak potentials observed in the cyclic voltammograms. All values were reported vs ferrocene, with the oxidation of ferrocene measured and corrected to zero for all experiments.

[2] = ^1O2 quantum yield, photooxidation of DMA (indirect method); settings: consumption of dimethylanthracene, Rose Bengal standard, air equilibrated acetonitrile
Experimental: Solutions of 9,10-dimethylanthracene (DMA, 50 μM) and photosensitizers (compound 3-10) in air equilibrated acetonitrile were irradiated in 10 mm path length quartz cell (3 ml) with a Nd:Yag laser exciting at 532 nm. Laser excitation was performed at 10 Hz, providing one laser output for every discharge of the flashlamp. An irradiation time of 1 s is equivalent to 10 laser pulses. The energy of each pulse was 10 mJ. The kinetics of DMA photooxidation were studied by following the decrease of the absorbance at λ=377 nm. The observed rate constant (kobs) was obtained by a linear least-squares fit of the semilogarithmic plot of ln [DMA]0/[DMA] (see FIG. 14). Quantum yields of ^1O2 production (φΔ^I) were calculated comparing the kobs=kq [^1O2] for the corresponding photosensitizer with that for Rose Bengal, which was used as a reference (φΔ=0.54).^1 Measurements of the sample and the reference under the same conditions afforded φΔ^I for compounds (3-10) by direct comparison of the slope in the linear region of the plots.
For the indirect detection of ^1O2, it is possible to determine the kq value considering that the production of ^1O2 is constant compare with the initial concentration of DMA. According to these, a pseudo first-order kinetic for this reaction is proposed (equations 2 to 5): […]
The conversion of DMA followed pseudo-first order kinetics with the different photosensitizers (see FIG. 14). From equation 5, it was possible to determine kobs and ^1O2.

[3] = ^1O2 quantum yield and lifetime, ^1O2 phosphorescence at 1270 nm (direct method); settings: for ΦΔ^D (singlet oxygen quantum yield, direct): ^1O2 phosphorescence at 1270 nm, air equilibrated acetonitrile
Experimental: The generation of singlet oxygen and its lifetime were determined from ^1O2 phosphorescence decay curves recorded at 1270 nm upon excitation with a 532 nm Nd:YAG laser. A total of 3 laser shots were applied to acquire a trace. […] Quantum yield of ^1O2 production (φΔ^D) were calculated comparing the intensity of ^1O2 phosphorescence at 1270 nm for the corresponding photosensitizer with that recorded for Rose Bengal (φΔ=0.54).^81

[4] = Absorption and steady-state fluorescence, fluorescence quantum yield in acetonitrile; settings: for abs λmax / em λmax / Φf (fluorescence quantum yield) / ε (extinction coefficient): acetonitrile, room temperature; for drop in φf following inclusion of I or Br atoms: relative to unsubstituted analogue (1 for 3 and 4; 2 for 5 and 6)
Experimental: Absorption spectra were recorded using a Hitachi U-2800 UV-vis-NIR spectrophotometer. Luminescence spectra were recorded using a PTI QuantaMaster spectrofluorimeter using 10×10 mm quartz cuvettes and corrected for detector sensitivity.
The steady-state fluorescence spectra were recorded between 500-800 nm (depending on each compound) upon exciting at the wavelength of the absorbance maxima. The excitation and emission slits were tuned according to the fluorescence quantum yield of each BODIPY (i.e. for compound 7 excitation slits were 5 nm and for compound 4 we used 2 nm). Fluorescence was recorded every 1 nm using 0.1 s integration time. For the Fluorescence lifetime measurements, the excitation rate was 10 MHz, and the detection frequency was less than 100 kHz. Photons were collected at the magic angle. The fluorescence decay traces were fit using FluoFit (Picoquant) software. For steady-state and time-resolved fluorescence measurements a quartz cuvette with a 10 mm path length was used and all the solutions were prepared in air equilibrated acetonitrile.
Quantum yields of fluorescence were measured using PM605 in acetonitrile as a reference. Absorption and emission spectra of PM605 and the dye of interest were measured in acetonitrile at five different concentrations. The integrated intensity versus absorbance were then plotted and fitted linearly. Relative quantum yields of fluorescence for the unknown with respect to the standard were obtained from equation 1, where φ, Δ, and n refer, respectively, to the quantum yield, the slope obtained from the above-mentioned plot, and the solvent refractive index for the unknown (x) or standard (st).

[5] = Gibbs free energy for photoinduced electron transfer (equation 6); settings: for ΔGeT (Singlet), Gibbs free energy for PeT: PeT from chromanol to singlet excited state; for ΔGeT (Triplet), Gibbs free energy for PeT: PeT from chromanol to triplet excited state, endergonic
Source text: Consistent with quenching of the singlet via PeT from the chromanol segment, the Gibbs free energy for photoinduced electron transfer (ΔGeT^0) was exergonic for compounds 7 and 8, in the range of 0.4 eV (see Table 3).
Based on these calculations ΔGeT^0 for PeT from the chromanol to the triplet excited state of 3-6 was endergonic, ca. 0.27 eV, accounting for the small intermolecular rate constant of quenching measured for these compounds in the presence of either PMHC or trolox, and for the long triplet decay rate constant kT recorded for compound 8. Importantly, the efficiency of PeT also relies in the distance between the trap segment and the photosensitizers a factor that may additionally contribute to the differences observed between compound 7 (methylene linker) and compound 8 (ester linker).

[6] = Laser flash photolysis: triplet excited state decay and quenching; settings: for kq (triplet quenching rate constant) Q = PMHC: Ar saturated acetonitrile; for Triplet decay rate constant kT: T-T absorption at 430 nm or 550 nm, argon saturated solutions; for kT (triplet decay rate constant) Air equilibrated / kT (triplet decay rate constant) Argon Purged / kq (triplet quenching rate constant) Q = ^3O2: acetonitrile; for kq (triplet quenching rate constant) Q = ^3O2: calculated with oxygen solubility 2.42 mM
Experimental: The 500 mJ/pulse laser output was attenuated yielding 10 mJ laser pulses of 6 ns in duration. Samples were prepared in acetonitrile. The final absorbance of the BODIPY dyes was 0.1. The concentration was kept low to avoid triplet-triplet annihilation. Each sample was de-oxygenated by purging with argon gas for at least 30 min. Quartz cells containing 10×10 mm path length were used. The decay of the BODIPYs was monitored between 420-440 and 520-550 nm (depending the BODIPY) following the laser excitation. Samples were irradiated with a total of 6 laser shots to acquire the temporal evolution of ΔOD.
A second layer of control was subsequently tested via LFP studies, to monitor the extent to which the trap segment deactivates the triplet excited state of the photosensitizes. […] The two quenchers emulate the trap segments utilized in 7 and 8, respectively.

[7] = Phosphorescence studies at 77 K; design: unit not given beside the values; settings: from phosphorescence emission spectra, 4:1 EtOH:MeOH
Experimental: Phosphorescence from compounds 3-6 was observed cooling a 4:1 EtOH:MeOH solution to 77 K with liquid nitrogen. Dilute sample solutions (Abs<0.1) were prepared in NMR tubes and suspended in a coldfinger Dewar (custom-made by Ace Glass) filled with liquid nitrogen.

SMILES | E^oB^+·/B (reversible oxidation potential) [1] | ΦΔ^I (singlet oxygen quantum yield, indirect) [2] | ΦΔ^D (singlet oxygen quantum yield, direct) [3] | E00 (HOMO-LUMO gap from intercept of normalized absorption and emission spectra) [4] [eV] | abs λmax [4] [nm] | em λmax [4] [nm] | Φf (fluorescence quantum yield) [4] | ε (extinction coefficient) [4] [M⁻¹ cm⁻¹] | drop in φf following inclusion of I or Br atoms [4] | ΔGeT (Singlet), Gibbs free energy for PeT [5] [eV] | ΔGeT (Triplet), Gibbs free energy for PeT [5] [eV] | kq (triplet quenching rate constant) Q = PMHC [6] | Triplet decay rate constant kT [6] [s⁻¹] | kT (triplet decay rate constant) Air equilibrated [6] | kT (triplet decay rate constant) Argon Purged [6] | kq (triplet quenching rate constant) Q = ^3O2 [6] | E (Triplet), energy of the lowest triplet state [7] | other results
CC1=C(I)C(C)=[N+]2C1=C(C)c1c(C)c(I)c(C)n1[B-]2(F)F [Compound 3, 2,6-diiodo-1,3,5,7,8-pentamethyl-pyrromethene fluoroborate] | 0.88 | 0.75 ± 0.04 | 0.81 and 0.81 ± 0.02 | 2.33 | 521 | 545 | 0.03 ± 0.01 | 83000 | 27 fold | −0.37 | 0.262 | 1.20 ± 0.05 × 10^8 M^−1s^−1 | 17000 | 4.35 ± 0.02 × 10^6 s^−1 | 1.68 ± 0.02 × 10^4 s^−1 | 1.82 ± 0.03 × 10^9 M^−1s^−1 | 1.70 | photodegradation ([3]; under 532 nm irradiation, presumably via photooxidation): photodegrade at a slightly larger pace than 5
CC1=C(Br)C(C)=[N+]2C1=C(C)c1c(C)c(Br)c(C)n1[B-]2(F)F [Compound 4, 2,6-dibromo-1,3,5,7,8-pentamethyl-pyrromethene fluoroborate] | 0.89 | 0.64 ± 0.03 | 0.72 ± 0.02 | 2.37 | 515 | 535 | 0.20 and 0.20 ± 0.02 | 79000 | ~4 fold | −0.38 | 0.282 | 1.29 ± 0.04 × 10^8 M^−1s^−1 | 27000 | 4.55 ± 0.03 × 10^6 s^−1 | 2.70 ± 0.02 × 10^4 s^−1 | 1.91 ± 0.02 × 10^9 M^−1s^−1 | 1.71 | –
CC(=O)OCC1=C2C(C)=C(I)C(C)=[N+]2[B-](F)(F)n2c(C)c(I)c(C)c21 [Compound 5, 8-Acetoxymethyl-2,6-diiodo-1,3,5,7-tetramethyl Pyrromethene Fluoroborate] | 0.91 | 0.95 ± 0.03 | 0.98 and 0.98 ± 0.03 | 2.21 | 550 | 572 | 0.02 ± 0.01 | 96000 | ca. 44 fold | −0.4 | 0.269 | 3.95 ± 0.07 × 10^8 M^−1s^−1 | 17000 | 7.14 ± 0.04 × 10^6 s^−1 | 1.64 ± 0.02 × 10^4 s^−1 | 3.01 ± 0.01 × 10^9 M^−1s^−1 | 1.54 | E^opc (cathodic peak potential) [1]: −1.14
CC1=C(Br)C(C)=[N+]2C1=C(CC1(C)CCc3c(C)c(O)c(C)c(C)c3O1)c1c(C)c(Br)c(C)n1[B-]2(F)F (stereo not drawn) [Compound 7, 8-((6-Hydroxy-2,5,7,8-tetramethylchroman-2-yl)-methyl)-2,6-dibromo-1,3,5,7-tetramethyl] | – | – | – | – | 532 | 557.4 | – | 56000 | – | – | – | – | – | – | – | – | – | ^1O2 generation ([3]; freshly prepared solutions): no ^1O2 generation; drop in φf caused by the trap segment ([4]; 7 compared to reference 4, 8 compared to 5): ca. 25 fold; intramolecular electron transfer rate constant from the singlet state (keT) ([4]; based on φf≤0.008): ≥ 1e+10 s⁻¹; triplet-triplet absorption ([6]; in contrast to precursor 4): unable to detect any triplet-triplet absorption
